The values below are quoted from earlier work in patent publication US20260071096A1, “BONDED ABRASIVE ARTICLES AND METHODS OF MANUFACTURE” (3M INNOVATIVE PROPERTIES COMPANY, priority 2020, published 2026).

Each structure is given as a SMILES string.

The conditions of this data set: species and route not given.

For `c1ccc2ccccc2c1` [Naphthalene, naphthalene], the “LD50 (mean lethal dose)” value is recorded as 490 mg/kg.
